The text below walks through data of patent publication US10281267B2, “Method for evaluating flow of skin, method for examining skin glow improvers, and skin glow improver” (Shiseido Company, Ltd., priority 2014, dated 2019).

The test system of assay [1] is horny layer cells. Description: Screening of specular reflectance improvers: arithmetic average roughness (Sa) of exfoliated horny layer cells by AFM. Type of assay: cell-based. To be noted: for screening result: specular reflectance improver: 100 μl sample on horny layer cells, 30 minutes at 37° C., nine types of cosmetic ingredients screened. The text has this:
The surface roughness of skin can be determined by measuring the surface of horny layer cells sampled with a strip of adhesive tape and the like using a microscope such as an atomic force microscope. Surface roughness can be calculated in terms of arithmetic average roughness (Sa) as defined in ISO25178 by acquiring 3D-scanned images captured using an atomic force microscope, correcting the inclination of the 3D shape by subtracting those images applicable to a Gaussian filter having a half width of 2 μm, displaying the images, and calculating the average of absolute values of the Z axis for each XY coordinate.
First, the arithmetic average roughness (Sa) of horny layer cells is measured (S11). Next, a sample is applied to the horny layer cells (S12). Then, the arithmetic average roughness (Sa) of the horny layer cells to which the sample has been applied is measured (S13). Next, the rate of decrease of the arithmetic average roughness (Sa) of the horny layer cells to which the sample was applied is determined relative to the arithmetic average roughness of the horny layer cells to which the sample was not applied (S14).
On the other hand, horny layer cells were exfoliated from the cheeks of the subjects using adhesive strips (Post-It®, 3M Corp.). Next, double-sided adhesive tape was adhered to a slide glass and the exfoliated horny layer cells were transferred to the slide glass. Moreover, the arithmetic average roughness (Sa) of five horny layer cells was measured using an AFM attached to the Optelics H1200A 3CCD real color confocal microscope (Lasertec Corp.) followed by determination of the average value thereof.
Horny layer cells were exfoliated from the cheeks of subjects using adhesive strips (Post-It®, 3M Corp.). Next, double-sided adhesive tape was adhered to a slide glass and the exfoliated horny layer cells were transferred to the slide glass. Moreover, the arithmetic average roughness (Sa) of five horny layer cells was measured using an AFM attached to the Optelics H1200A 3CCD real color confocal microscope (Lasertec Corp.) followed by determination of the average value thereof. Next, 100 μl of a candidate sample were dropped onto the horny layer cells followed by incubating for 30 minutes at 37° C. Moreover, arithmetic average roughness (Sa) of the aforementioned five horny layer cells was then measured in the same manner followed by determination of the average value thereof.

Assay [2] deals with horny layer cells. The assay is described as above. Type of assay: cell-based. To be noted: trimethylglycine alone.

Entries after “also recorded” stand apart in the source; their conditions may differ.

Regarding `O=C(O)CO` [glycolic acid], the “screening result: specular reflectance improver” value (shortened to “screening result”) in the assay on horny layer cells [1] is “determined to be specular reflectance improvers”. For the same compound, in the assay with horny layer cells [1] (concentration 4% by weight to 40% by weight, FIG. 20), the “arithmetic average roughness (Sa) of horny layer cells” value is recorded as “decreases significantly”.

`COc1ccc(C(=O)[O-])c(O)c1.[K+]` [potassium 4-methoxysalicylate]: the “rate of decrease of arithmetic average roughness (Sa) of horny layer cells” value with horny layer cells [1] (4-MSK at 0, 0.1, 1.0, 3.0 and 10.0% by weight, FIG. 8) is recorded as “dose-dependent increase in the rate of decrease of arithmetic average roughness (Sa) up to 3.0% by weight”. In addition, in the assay on horny layer cells [1], the “screening result” value is on record as “determined to be specular reflectance improvers”. Also, the “arithmetic average roughness (Sa) of horny layer cells” value in the assay with horny layer cells [1] (concentration 3% by weight to 10% by weight, FIG. 13) is “decreases significantly”.

Consider `O=C([O-])c1ccccc1O.[Na+]` [sodium salicylate, sodium 2-hydroxybenzoate], for which the “screening result” value in the assay with horny layer cells [1] was “determined to be specular reflectance improvers”.

For `C[N+](C)(C)CC(=O)[O-]` [trimethylglycine], the “specular reflectance of the skin” value in the assay with horny layer cells [2] is reported as “confirmed to not be improved”. In addition, the “rate of decrease of arithmetic average roughness (Sa) of horny layer cells” value in the assay with horny layer cells [1] (TMG alone at 0, 5 and 10% by weight, FIG. 9) is “does not have the effect of smoothing the horny layer or improving skin glow; also recorded: no differences in the rates of decrease of arithmetic average roughness (Sa); also recorded: did not have an effect on the rate of decrease of Sa”.
